The subject of one data set is CT26.CL25 (LacZ+). Kind of data set: In vitro tracer uptake (gamma counter) in β-galactosidase (LacZ) overexpressing cells. Format: cell-based. Conditions: β-galactosidase (LacZ) overexpression model; 1×10^6 cells, 0.74 MBq tracer, 40 min, 37° C. Here is the method:
(§1) Cells were cultured in a humidified incubator (Binder, Tuttlingen, Germany) at 37° C. and 5% CO2. Fetal bovine serum (FBS, Sigma of Merck) was heat-inactivated for 30 min at 57° C. for cell culture supplementation. For in vitro uptake experiments, the cells were rinsed with DPBS, harvested with a cell scraper and finally centrifuged. The cell pellet was then washed with DPPS and resuspended in DPBS, before being counted. A suspension of 1×10^6 cells in 1 ml DPBS was incubated with 0.74 MBq of tracer at 37° C. and 5% CO2 for 40 min. After the designated incubation time, the suspension was centrifuged. The cell pellet was transferred into a fresh gamma counter tube (Sarstedt), washed twice with 1 ml DPBS and resuspended in 1 ml DPBS. The uptake was measured with a 2480 Wizard^2 automated gamma counter (Perkin Elmer).
(§2) In vitro experiments were performed by uptake quantification in a gamma-counter. In all experiments, 1 million of each of the cell lines were treated with 20 μCi of tracer. After incubation time of 40 minutes, the cells were centrifuged, the supernatant discarded and the cell pellet resuspended in fresh PBS. The samples were then measured in biodistribution tubes in a gamma counter. The tracers were tested first using a β-galactosidase (LacZ) overexpression model of a colon carcinoma cell line (CT26-CL25) and the wild type (CT26) as control (FIG. 2A). Next, the tracers were tested in a senescent cell model: a liver carcinoma cell line (Amp19) treated with ribosomal checkpoint inhibitor (RCI) (FIGS. 2B and 2C).

Another data set concerns Amp19. Kind of data set: In vitro tracer uptake (gamma counter) in Amp19 senescence cell model. Format: cell-based. The settings on record: 1×10^6 cells, 0.74 MBq tracer, 40 min; for Uptake in % ID per million cells, Amp19 (cntrl): control Amp19 cells; for Uptake in % ID per million cells, Amp19 (sen): senescent Amp19 cells (treated with RCI). Here is the method:
as §1, §2

The subject of the next data set is CT26. Kind of data set: In vitro tracer uptake (gamma counter) in wild type CT26 control cells. Conditions: 1×10^6 cells, 0.74 MBq tracer, 40 min, 37° C. Format: cell-based. The protocol: as §1, §2
Another data set concerns HCT116. In words: In vitro tracer uptake (gamma counter) in HCT116 senescence cell model. Format: cell-based. Conditions: 1×10^6 cells, 0.74 MBq tracer, 40 min; for Uptake in % ID per million cells, HCT116 (cntrl): control HCT116 cells; for Uptake in % ID per million cells, HCT116 (sen): senescent HCT116 cells. Here is the method:
as §1

The test system of data set [1] is Amp19 tumors. In words: Ex vivo autoradiography of Amp19 tumors after tracer administration. Format: in vivo, mice. Conditions: cx-treated (senescent) vs non-senescent control Amp19 tumors, FIG. 5. Here is the method: (§3) Animal procedures were approved by the local authorities (Regierungspraesidium Tuebingen, Tuebingen, Germany) and conducted according to the German Animal Welfare Act. The mice used were between 6 and 7 weeks of age. Tumors were implanted by injecting 0.5×10^6 cells s.c. into the right flank of SCID beige mice. When most tumors reached 100 mm^3 (˜3 weeks post inoculation), the animals were randomized into two groups. The groups received 25 mg/kg/d CX-5461 (AdooQ BioScience, Irvine, CA, USA) or vehicle [50 mM monosodium phosphate (Sigma of Merck KGaA, Darmstadt, Germany), pH 4.5]i.p. for five consecutive days.
For autoradiography, the tumors were embedded in the optimal cutting temperature compound (Tissue-Tek® O.C.T., Sakura, Alphen aan den Rijn, Netherlands) and frozen at −20° C. in the cryotome (Leica, Wetzlar, Germany). Cryosections (20 μm) were then attached to microscope slides (SuperFrost® Plus, R. Langenbrinck, Emmendingen, Germany). The slides were exposed overnight to a phosphor screen (Molecular Dynamics of GE Healthcare). The screen was then scanned by the phosphorimager (Storm 840, Amersham of GE Healthcare). The signal intensities of sections were normalized to each other based on decay corrected animal receiving dose with the open-source software ImageJ (National Institute of Health, Bethesda, MD, USA). […]

The subject of data set [2] is Amp19 tumors. In words: Dynamic PET scans of Amp19 tumor bearing mice. Format: in vivo. Here is the method: as §3
Anatomical imaging was conducted on a 7 Tesla small animal MRI scanner with a rat whole body coil and Paravision® software (Bruker, Billerica, MA, USA). The animals were then transferred to the PET scanner without moving the animal to ensure co-registration. The animals received 12±1 MBq tracer (determined by a CRC 15-R dose calibrator) was injected through a tail vein catheter, which was subsequently flushed with 50 μl heparinized saline solution. The transmission scan using an external ^57Co point source was performed for the attenuation correction. […]
The list mode raw file was histogrammed and reconstructed with OSEM3D/SP-MAP algorithm implemented in Inveon Acquisition Workplace. […] The tracer uptake was calculated as the percentage of the injected dose per cubic centimeter (% ID/cc). […]

Structures are written as SMILES. Values joined by “and” are separate entries in the source; they are usually repeats but may differ in a detail not shown here. Identical values can stand only once.

Turning to `OC[C@H]1O[C@@H](Oc2ccc(NCCC[18F])cc2COc2c(F)c(F)cc(F)c2F)[C@H](O)[C@@H](O)[C@H]1O` [[^18F]ADTFPBGal], in the data set with CT26.CL25 (LacZ+), the “Uptake in % ID per million cells, CT26.CL25 (LacZ+)” value was found to be 4.515 % ID per million cells. In the data set with Amp19, the “Uptake in % ID per million cells, Amp19 (cntrl)” value is recorded as 1.085 % ID per million cells and the “Uptake in % ID per million cells, Amp19 (sen)” value is 0.205 % ID per million cells. Also, the “Uptake in % ID per million cells, CT26” value in the data set on CT26 is listed as 1.403 % ID per million cells. Besides, in the data set on HCT116, the “Uptake in % ID per million cells, HCT116 (cntrl)” value is reported as 1.564 % ID per million cells and the “Uptake in % ID per million cells, HCT116 (sen)” value was found to be 0.6573 % ID per million cells.

`OC[C@H]1O[C@@H](Oc2cccnc2[18F])[C@H](O)[C@@H](O)[C@H]1O` [[^18F]FPyGal, reference compound]: in the data set with CT26.CL25 (LacZ+), the “Uptake in % ID per million cells, CT26.CL25 (LacZ+)” value was 0.5769 % ID per million cells and 1.117 % ID per million cells. Moreover, in the data set with Amp19, the “Uptake in % ID per million cells, Amp19 (cntrl)” value is reported as 0.2657 % ID per million cells and the “Uptake in % ID per million cells, Amp19 (sen)” value amounted to 0.0639 % ID per million cells. In addition, in the data set on HCT116, the “Uptake in % ID per million cells, HCT116 (cntrl)” value is 0.3438 % ID per million cells and the “Uptake in % ID per million cells, HCT116 (sen)” value came out at 0.1998 % ID per million cells.

Take `O=[N+]([O-])c1ccc(OCc2cc(NCCC[18F])ccc2O[C@@H]2O[C@H](CO)[C@H](O)[C@H](O)[C@H]2O)cc1` [[^18F]NO2BGal]: the “Uptake in % ID per million cells, CT26.CL25 (LacZ+)” value with CT26.CL25 (LacZ+) came out at 0.9792 % ID per million cells. In addition, in the data set with Amp19, the “Uptake in % ID per million cells, Amp19 (cntrl)” value stood at 1.286 % ID per million cells and the “Uptake in % ID per million cells, Amp19 (sen)” value was found to be 0.3245 % ID per million cells. In addition, the “Uptake in % ID per million cells, CT26” value in the data set with CT26 turned out to be 1.492 % ID per million cells. Besides, in the data set on HCT116, the “Uptake in % ID per million cells, HCT116 (cntrl)” value turned out to be 0.5052 % ID per million cells and the “Uptake in % ID per million cells, HCT116 (sen)” value is on record as 0.3026 % ID per million cells.

Consider `OC[C@H]1O[C@@H](Oc2ccc(N3CCN(CCC[18F])CC3)cc2)[C@H](O)[C@@H](O)[C@H]1O` [[^18F]PIPGal], for which the “Uptake in % ID per million cells, CT26.CL25 (LacZ+)” value in the data set on CT26.CL25 (LacZ+) stood at 0.06898 % ID per million cells. Also, the “Autoradiography signal accumulation in tumors” value with Amp19 tumors [1] was “High signal accumulation is observed in the cx-treated (senescent) tumors compared to the non-senescent controls”. In the data set on Amp19, the “Uptake in % ID per million cells, Amp19 (cntrl)” value is given as 0.3165 % ID per million cells and the “Uptake in % ID per million cells, Amp19 (sen)” value stood at 0.04018 % ID per million cells. Further, the “Uptake in % ID per million cells, CT26” value with CT26 worked out at 0.3131 % ID per million cells. Also, in the data set on HCT116, the “Uptake in % ID per million cells, HCT116 (cntrl)” value turned out to be 0.1219 % ID per million cells and the “Uptake in % ID per million cells, HCT116 (sen)” value is on record as 0.09843 % ID per million cells.

As to `OC[C@H]1O[C@@H](Oc2cc([18F])ccc2COc2c(F)c(F)cc(F)c2F)[C@H](O)[C@@H](O)[C@H]1O` [[^18F]TFPBGal], the “Uptake in % ID per million cells, CT26.CL25 (LacZ+)” value in the data set on CT26.CL25 (LacZ+) is on record as 7.514 % ID per million cells. For the same molecule, in the data set on Amp19, the “Uptake in % ID per million cells, Amp19 (cntrl)” value is reported as 3.641 % ID per million cells and the “Uptake in % ID per million cells, Amp19 (sen)” value was determined as 0.3992 % ID per million cells. The “Uptake in % ID per million cells, CT26” value with CT26 is 2.444 % ID per million cells. Further, the “Dynamic uptake in tumors (PET)” value in the data set with Amp19 tumors [2] (CX-treated (senescent) vs untreated control Amp19 tumors, tracer i.v., FIG. 4) is given as “higher in CX-treated (senescent) tumors compared to untreated controls at all time points”. In addition, in the data set with Amp19 tumors [2] (treated and untreated Amp19 tumors, uptake stable, reaches a maximum and plateaus), the “Washout of tumor uptake (dynamic PET)” value is on record as “no observable washout effect”. Besides, in the data set with HCT116, the “Uptake in % ID per million cells, HCT116 (cntrl)” value was 4.745 % ID per million cells and the “Uptake in % ID per million cells, HCT116 (sen)” value is on record as 2.761 % ID per million cells.

The record behind these values is patent publication US20260183434A1, “NEW SENESCENCE TRACER GENERATION” (Eberhard Karls Universitaet Tuebingen Medizinische Fakultaet, priority 2023, published 2026).
